# Measurements published in patent US12221494B2, “Short synthetic peptides and their uses for treating retinal degenerative diseases and/or tissue injuries” (MacKay Memorial Hospital, priority 2019, dated 2025).
# Square brackets hold non-standard residues; d marks the D form. Ends that are not written are not given here.
# Tested on: ARPE-19 cells
# Test: 4-HNE induced apoptosis of ARPE-19 cells (TUNEL staining)
# Format: cell-based, human
# Conditions: 20 μM peptide pretreatment, 25 μM 4-HNE 24 h
# Method: FIG. 6. The protective effect of the 6-mer dS on ARPE-19 cells against 4-HNE induced apoptosis. Cells were deprived of serum for 24 h and then pretreated with 20 μM 6-mer dS or solvent prior to exposed with 25 μM 4-HNE for additional 24 h. Apoptosis was determined by TUNEL staining (green dots) and counter-stained with Hoechst 33258 (blue dots). (A) Representative graphs from three independent experiments are shown. (B) The percentage of cell death was quantified by dividing the number of TUNEL-positive cells to a population of 2000 counted cells per condition. TUNEL, terminal deoxynucleotidyl transferase-mediated dUTP nick end-labeling. ^aP<0.00003 versus solvent-treated cells. ^bP<0.0006 versus solvent/4-HNE-treated cells.
# Reference is made to FIG. 6, which depicts the protective effect of 6-mer dS or 6-mer dE on 4-hydroxy-2-nonenal (4-HNE) induced apoptosis of ARPE-19 cells. 4-hydroxy-2-nonenal (4-HNE) is a product of lipid oxidation, and is also considered as one of the most formidable reactive aldehydes capable of forming adduct with various cellular targets, particularly proteins involve in redox signaling.
substance,measurement,value
"NH2-Ser-Leu-Gly-Ala-Glu-Gln-COOH ([dS]LGAEQ; not fully specified (N-terminus, C-terminus); printed as NH2-Ser-Leu-Gly-Ala-Glu-Gln-COOH) [Peptide 6-mer]","4-HNE induced apoptosis (TUNEL), in words",6-mer dS being more effective than the 6-mer
